Experiment: not given

Row | Compound | logP
1 | CNC(=O)N(C)C(=O)Nc1cc(C(C)(C)C)ccc1F | 3.96
2 | CNC(=O)N(C)C(=O)Nc1cc(C(C)=O)ccc1F | 1.82
3 | CNC(=O)N(C)C(=O)Nc1cc(F)ccc1F | 2.4
4 | CNC(=O)N(C)C(=O)Nc1cc(-c2ccccc2)ccc1F | 3.78
5 | CNC(=O)N(C)C(=O)Nc1cc(Cc2ccccc2)ccc1F | 3.9
6 | CNC(=O)N(C)C(=O)Nc1cc(OC)ccc1F | 2.14
7 | CNC(=O)N(C)C(=O)Nc1cc(S(=O)(=O)C(C)C)ccc1F | 1.87

Experiment: method code SF-AS, from DOI: 10.1021/jf00090a013

Row | Compound | logP
8 | CCc1ccc(F)c(NC(=O)N(C)C(=O)NC)c1 | 3.23
9 | CNC(=O)N(C)C(=O)Nc1cc(C(=O)OC)ccc1F | 2.28
10 | CNC(=O)N(C)C(=O)Nc1cc(I)ccc1F | 3.58
11 | CNC(=O)N(C)C(=O)Nc1ccccc1F | 2.12
12 | CNC(=O)N(C)C(=O)Nc1cc(OC(C)C)ccc1F | 3.08
13 | CNC(=O)N(C)C(=O)Nc1cc(C2CCCCC2)ccc1F | 4.58
14 | CNC(=O)N(C)C(=O)Nc1cc(C(C)C)ccc1F | 3.53
15 | CNC(=O)N(C)C(=O)Nc1cc([N+](=O)[O-])ccc1F | 2.3
16 | CCC(CC)c1ccc(F)c(NC(=O)N(C)C(=O)NC)c1 | 4.46

— the SangsterLogP compilation
